Tested on: human ciliary cells
Test: Flicker frequency and regeneration capability of human ciliary cells, photometric method
Type: cell-based
Conditions: for Mean value in percent, 20 min test Solution: (II) / Mean value in percent, 20 min NaCl 0.9% (III): Time I = 100; for Mean value in percent, 20 min NaCl 0.9% (III): Time III (regeneration)
Protocol: In comparison with this, the seriously damaging effect of preservatives (on the basis of benzalkonium chloride, BAC) used in conventional cortisone preparations on human ciliary cells was compared. The flicker frequency was determined in a manner known per se by means of a photometric method. Solutions and fluticasone propionate and mixed solutions of fluticasone propionate with N-chlorotaurine sodium (NCT) were prepared in accordance with the following table: Mucous membrane cells were first incubated with an isotonic NaCl solution for 20 minutes (Time I), subsequently incubated with the solutions A, B and C for 20 minutes (Time II) and subsequently incubated in an isotonic solution for a further 20 minutes (Time III). Parallel to this, […] mucous membrane cells were incubated according to the same pattern in comparison with BAC solutions (concentrations of 0.04 mg/ml; 0.1 mg/ml; 0.2 mg/ml; 0.5 mg/ml). The results of the regeneration capability of the ciliary cells after treatment with the solutions A, B and C were compared with the results after the treatment with the BAC solutions.

Substance: benzalkonium chloride [BAC]
- Mean value in percent, 20 min test Solution: (II) (0.04 mg/ml BAC): 96.6%
- Mean value in percent, 20 min NaCl 0.9% (III) (0.04 mg/ml BAC): 100%
- Mean value in percent, 20 min test Solution: (II) (0.1 mg/ml BAC): 91.9%
- Mean value in percent, 20 min NaCl 0.9% (III) (0.1 mg/ml BAC): 93.6%
- Mean value in percent, 20 min test Solution: (II) (0.2 mg/ml BAC): 63.5%
- Mean value in percent, 20 min NaCl 0.9% (III) (0.2 mg/ml BAC): 19.4%
- Mean value in percent, 20 min test Solution: (II) (0.5 mg/ml BAC): 0%
- Mean value in percent, 20 min NaCl 0.9% (III) (0.5 mg/ml BAC): 0%
- Recovery of ciliary cells after treatment (treatment with more than 0.1 mg/ml benzalkonium chloride): remain permanently damaged

From patent US20090029956A1, “Substance mixture” (priority 2005, published 2009)
